Laboratory results as given in patent US9102617B2, “Antimicrobial agents” (Rutgers, The State University of New Jersey, priority 2010, dated 2015).
Where two headings read alike, the source gives them in different places.

Experiments:
[1] = test system: methicillin-resistant Staphylococcus aureus (MRSA); assay: Planktonic antibacterial broth microdilution assay (Test C), MIC vs MRSA; format: cell-based; settings: read-out: MIC vs MRSA
Procedure: (§1) Test C. Planktonic (Free-Living) Antibacterial Assay.
(§2) Planktonic antibacterial activity can be determined using a broth microdilution assay in which log-phase bacteria are grown at 37° C. in appropriate medium containing two-fold serial dilutions of a compound to yield a final concentration ranging from 256 to 0.1 μg/ml. For determination of minimal inhibitory concentration (MIC) values, bacterial growth is monitored after 24 to 48 hours by measuring optical density at 600 nm. […] The minimal inhibitory concentration against methicillin-sensitive Staphylococcus aureus (MSSA) for each of the following representative compounds of the invention was determined to be less than 32 μg/ml.
Representative compounds of the invention were also tested against methicillin-resistant Staphylococcus aureus, vancomycin-resistant Enterococcus faecalis and Enterococcus faecium (VRE), vancomycin-sensitive Enterococcus faecalis and Enterococcus faecium (VSE).

S. aureus FtsZ = molecular target: T1, S. aureus FtsZ (Staphylococcus aureus, UniProt P0A031); assay: Inhibition of S. aureus FtsZ polymerization and GTPase activity (Tests A and B); format: biochemical
T1 sequence (P0A031 1-390): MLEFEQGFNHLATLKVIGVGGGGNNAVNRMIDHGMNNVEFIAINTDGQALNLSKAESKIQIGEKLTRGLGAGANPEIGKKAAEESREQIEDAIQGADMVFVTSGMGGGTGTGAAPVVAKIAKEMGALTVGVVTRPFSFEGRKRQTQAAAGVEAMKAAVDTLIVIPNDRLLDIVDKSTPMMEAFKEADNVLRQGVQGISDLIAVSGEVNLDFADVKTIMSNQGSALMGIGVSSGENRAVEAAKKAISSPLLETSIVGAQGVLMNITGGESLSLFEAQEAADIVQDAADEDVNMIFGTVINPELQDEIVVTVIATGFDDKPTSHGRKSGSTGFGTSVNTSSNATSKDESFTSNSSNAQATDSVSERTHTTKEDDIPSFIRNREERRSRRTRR
From the text: Test A. Determining the Impact of the Compounds of the Invention on FtsZ Polymerization Dynamics.
Compound-induced alteration in FtsZ polymerization dynamics can be tested using a light scattering-based […] using purified FtsZ. Upon addition of GTP, FtsZ self-associates to form polymeric structures that scatter light at 340 nm to a greater extent than the monomeric protein. The impact of the compounds of the invention on the polymerization dynamics of FtsZ can be detected by an increase of decrease in the extent of GTP-induced light scattering relative to that observed in the absence of compound. Quantitation of the overall extent of light scattering as a function of compound concentration to yield a compound concentration at which FtsZ polymerization is inhibited by 50% (IC50) provides an indication of the potency of that compound at altering FtsZ polymerization dynamics.
Test B. Determining the FtsZ GTPase Inhibitory Activities of Compounds of the Invention.
Compound-induced inhibition of the FtsZ GTPase activity can be tested using a colorimetric assay in which the inorganic phosphate (Pi) released upon FtsZ-catalyzed hydrolysis of GTP reacts with malachite green and molybdate under acidic conditions to form a ternary complex that absorbs light at 650 nm, thus enabling quantitation of Pi levels by recording the absorbance at 650 nm (A650). Differing concentrations of test compound are combined with GTP and the reactions (run in triplicate) are initiated by addition of FtsZ. After incubation for 60 minutes at room temperature, the reactions are stopped by addition of an acidic malachite green-molybdate solution containing malachite green oxalate, sodium molybdate, Triton X-100, and 0.7 N HCl. For the purposes of generating a standard curve, each experiment includes reactions containing known concentrations of monobasic potassium phosphate (KH2PO4) in place of FtsZ. Ten minutes following addition of the acidic malachite green-molybdate solution, the A650 value for each reaction is recorded. A standard curve of A650 versus Pi concentration is constructed using the average A650 value obtained for each known KH2PO4 concentration. This standard curve is then fit by linear regression analysis to yield the quantitative relationship between A650 and Pi concentration. The resulting relationship as well as the average A650 value for each test reaction is used to calculate the concentrations of Pi released by the GTPase activity of FtsZ. The released Pi concentration in the absence of test compound is set as the mark for 100% GTPase activity, and is used to calculate the percent GTPase activities in reactions containing test compounds. The percent GTPase activity is then plotted as a function of log (compound concentration), with the resulting curves being fit using an appropriate sigmoidal relationship to obtain the compound concentrations at which GTPase activity is inhibited by 50% (IC50 values).

[2] = test system: methicillin-sensitive Staphylococcus aureus (MSSA); assay: Planktonic antibacterial broth microdilution assay (Test C), MIC vs MSSA; format: cell-based; settings: 37° C., growth read after 24 to 48 hours at OD 600 nm
Procedure: as §1, §2

[3] = broth microdilution, 37° C., growth read after 24 to 48 hours at OD 600 nm
[4] = S. aureus FtsZ, polymerization and/or GTPase activity, read-out: IC50 (compound concentration at which FtsZ polymerization and/or GTPase activity is inhibited by 50%)

| MIC [1, 3] [µg/mL] | IC50 (S. aureus FtsZ; [4]) [µM] | MIC [2] [µg/mL] | SMILES | MIC [1] [µg/mL] | IC50 (S. aureus FtsZ) [µM] |
| --- | --- | --- | --- | --- | --- |
| ≤ 8 | < 79.7 | ≤ 8 | CCC[n+]1cc(-c2cc(OC)c(OC)c(-c3ccc(C(C)(C)C)cc3)c2)cc2cc(OC)c(OC)cc21.[I-] [Example 19] | – | – |
| ≤ 8 | < 173 | ≤ 8 | CC(C)(C)c1ccc(-c2cccc3c(CN)cccc23)cc1 [Example 41] | – | – |
| ≤ 8 | < 151 | ≤ 8 | CC(C)(C)c1ccc(-c2cccc3c(CNC(=N)N)cccc23)cc1 [Example 42] | – | – |
| ≤ 8 | – | ≤ 8 | CC(C)(C)c1ccc(-c2cccc3cc(-c4ccccc4CNCCN)ccc23)cc1 [Example 62] | – | – |
| ≤ 8 | < 93.4 | ≤ 8 | CC(C)(C)c1ccc(-c2cccc3cc(-c4ccccc4C[N+](C)(C)C)ccc23)cc1.[I-] [Example 63] | – | – |
| ≤ 8 | – | ≤ 8 | NCc1cccc(-c2ccc3c(-c4cccc(-c5ccccc5)c4)cccc3c2)c1 [Example 70] | – | – |
| – | < 123 | ≤ 8 | CC(C)(C)c1ccc(-c2cccc3cc(-c4ccccc4CNC(=N)N)ccc23)cc1 [Example 104] | – | – |
| ≤ 8 | < 118 | ≤ 8 | C[n+]1cccc2cc(-c3ccc(-c4ccccc4)cc3)ccc21.[I-] [Example 114] | – | – |
| 16 | – | ≤ 8 | C[n+]1cccc2ccc(-c3ccc(-c4ccccc4)cc3)cc21.[I-] [Example 116] | – | – |

| SMILES | MIC [1, 3] [µg/mL] | IC50 (S. aureus FtsZ; [4]) [µM] | MIC [2] [µg/mL] | MIC [1] [µg/mL] | IC50 (S. aureus FtsZ) [µM] |
| --- | --- | --- | --- | --- | --- |
| C[n+]1ccc2c(-c3ccc(-c4ccccc4)cc3)cccc2c1.[I-] [Example 112] | – | – | ≤ 8 | 32 | < 118 |
| C[n+]1ccc(-c2ccc(-c3ccccc3)cc2)c2ccccc21.[I-] [Example 120] | – | – | ≤ 8 | > 32 | < 118 |
